Structures can show the parent of a compound that is named as a salt.
What was measured:
[1] = Photophysical characterization: fluorescence properties and fluorescence quantum yield (SPEX-fluorolog, relative to indocyanine green); type: physicochemical; conditions: formulation with Gd-complex perfluoroalkyl derivative (WO 97/26017 Ex. 33); for Fluorescence quantum yield: 2 μM in dye
Experimental: (§1) The determination of the absorption maxima and extinction coefficients was carried out with a Lambda 2-spectrometer (Perkin-Elmer Company). The fluorescence properties were determined on a SPEX-fluorolog (Instruments S. A. Company, photomultiplier Hamamatsu PM928, excitation 350W xenon lamp). the determination of the fluorescence quantum yield was carried out relative to indocyanine green (O=13% in DMSO) by excitation at 585 nm (dyes with p=2) or 685 nm (dyes with p=3), in each case of solutions of concentration 2 μM in dye, and correction with the spectral sensitivity of lamp and detector.

[2] = Photophysical characterization: absorption maxima and extinction coefficients (Lambda 2-spectrometer); type: physicochemical; conditions: formulation with Gd-complex perfluoroalkyl derivative (WO 97/26017 Ex. 33)
Experimental: as §1

[3] = in DMSO; cited from earlier work
[4] = dyes 7-14 table, 5 mol % of dye

| SMILES | Fluorescence max. [1, 4] | Fluorescence quantum yield [1, 4] | Absorption max. [2, 4] | Extinction coefficient [2, 4] | also measured |
| --- | --- | --- | --- | --- | --- |
| CC1(C)C(=CC=CC=CC2=[N+](CCCCS(=O)(=O)[O-])c3ccc(C(=O)N(CCOCCC(F)(F)C(F)(F)C(F)(F)C(F)(F)C(F)(F)C(F)(F)C(F)(F)C(F)(F)F)CC(O)CO)cc3C2(C)C)N(CCCCS(=O)(=O)[O-])c2ccccc21.[Na+] (stereo not shown) [Dye 9, 5-{N-[2-(3,3,4,4,5,5,6,6,7,7,8,8,9,9,10,10,10-heptadecafluorodecyloxy)ethyl]-N-(2,3-dihydroxypropyl)aminocarbonyl}-2-{7-[1,3-dihydro-3,3-dimethyl-1-(4-sulfobutyl)-2H-indol-2-ylidene]-1,3-pentadienyl}-3,3-dimethyl-1-(4-sulfobutyl)-3H-indolium, internal salt, sodium salt] | 685 nm | 0.12 | 651 nm | 123,700 L mol^−1 cm^−1 | Fluorescence max. ([1]; 1 mol % of dye): 681 nm; Fluorescence quantum yield ([1]; 1 mol % of dye): 0.17; Fluorescence max. ([1]; 2 mol % of dye): 683 nm; Fluorescence quantum yield ([1]; 2 mol % of dye): 0.18; Fluorescence max. ([1]; 5 mol % of dye): 685 nm; Fluorescence quantum yield ([1]; 5 mol % of dye): 0.12; Fluorescence max. ([1]; 10 mol % of dye): 685 nm; Fluorescence quantum yield ([1]; 10 mol % of dye): 0.04; Absorption max. ([2]; 1 mol % of dye): 652 nm; Extinction coefficient ([2]; 1 mol % of dye): 132,000 L mol^−1 cm^−1; Absorption max. ([2]; 2 mol % of dye): 651 nm; Extinction coefficient ([2]; 2 mol % of dye): 130,200 L mol^−1 cm^−1; Absorption max. ([2]; 5 mol % of dye): 651 nm; Extinction coefficient ([2]; 5 mol % of dye): 123,700 L mol^−1 cm^−1; Absorption max. ([2]; 10 mol % of dye): 649 nm; Extinction coefficient ([2]; 10 mol % of dye): 110,900 L mol^−1 cm^−1 |
| CCN1C(=CC=CC=CC2=[N+](CCCCS(=O)(=O)[O-])c3ccc(C(=O)NCCOCCC(F)(F)C(F)(F)C(F)(F)C(F)(F)C(F)(F)C(F)(F)C(F)(F)C(F)(F)F)cc3C2(C)C)C(C)(C)c2ccccc21 [Dye 11, 2-[5-(1-Ethyl)-1,3-dihydro-3,3-dimethyl-2H-indol-2-ylidene)-1,3-pentatrienyl]-5-{N-[2-(3,3,4,4,5,5,6,6,7,7,8,8,9,9,10,10,10-heptadecafluorodecyloxy)ethyl]-aminocarbonyl}-3,3-dimethyl-1-(4-sulfobutyl)-3H-indolium, internal salt, sodium salt] | 683 nm | 0.14 | 653 nm | 145,000 L mol^−1 cm^−1 | – |
| CC1(C)C(/C=C/C=C/C=C/C=C2\N(CCCCS(=O)(=O)O)c3ccc4ccccc4c3C2(C)C)=[N+](CCCCS(=O)(=O)[O-])c2ccc3ccccc3c21 [indocyanine green] | – | – | – | – | fluorescence quantum yield (reference standard) [3]: 13% |

Continued, in another order:

| Fluorescence max. [1, 4] | Fluorescence quantum yield [1, 4] | Absorption max. [2, 4] | Extinction coefficient [2, 4] | SMILES | also measured |
| --- | --- | --- | --- | --- | --- |
| 788 nm | 0.13 | 754 nm | 118,800 L mol^−1 cm^−1 | CCN1C(=CC=CC=CC=CC2=[N+](CCCCS(=O)(=O)[O-])c3ccc(C(=O)NCCOCCC(F)(F)C(F)(F)C(F)(F)C(F)(F)C(F)(F)C(F)(F)C(F)(F)C(F)(F)F)cc3C2(C)C)C(C)(C)c2ccccc21 [Dye 12, 2-[5-(1-ethyl)-1,3-dihydro-3,3-dimethyl-2H-indol-2-ylidene)-1,3,5-heptatrienyl]-5-{N-[2-(3,3,4,4,5,5,6,6,7,7,8,8,9,9,10,10,10-heptadecafluorodecyloxy)-ethyl]-aminocarbonyl}-3,3-dimethyl-1-(4-sulfobutyl)-3H-indolium, internal salt, sodium salt] | – |
| 684 nm | 0.16 | 650 nm | 150,700 L mol^−1 cm^−1 | CCN1C(=CC=CC=CC2=[N+](CCCCS(=O)(=O)[O-])c3ccc(C(=O)N(CCOCCC(F)(F)C(F)(F)C(F)(F)C(F)(F)C(F)(F)C(F)(F)C(F)(F)C(F)(F)F)CC(O)CO)cc3C2(C)C)C(C)(C)c2ccccc21 (stereo not shown) [Dye 13, 2-[5-(1-ethyl)-1,3-dihydro-3,3-dimethyl-2H-indol-2-ylidene)-1,3-pentatrienyl]-5-{N-[2-(3,3,4,4,5,5,6,6,7,7,8,8,9,9,10,10,10-heptadecafluorodecyloxy)ethyl]-N-(2,3-dihydroxypropyl)aminocarbonyl}-3,3-dimethyl-1-(4-sulfobutyl)-3H-indolium, internal salt, sodium salt] | – |
| 789 nm | 0.09 | 753 nm | 124,100 L mol^−1 cm^−1 | CCN1C(=CC=CC=CC=CC2=[N+](CCCCS(=O)(=O)[O-])c3ccc(C(=O)N(CCOCCC(F)(F)C(F)(F)C(F)(F)C(F)(F)C(F)(F)C(F)(F)C(F)(F)C(F)(F)F)CC(O)CO)cc3C2(C)C)C(C)(C)c2ccccc21 (stereo not shown) [Dye 14, 2-[5-(1-ethyl)-1,3-dihydro-3,3-dimethyl-2H-indol-2-ylidene)-1,3,5-heptatrienyl]-5-{N-[2-(3,3,4,4,5,5,6,6,7,7,8,8,9,9,10,10,10-heptadecafluorodecyloxy)-ethyl]-N-(2,3-dihydroxypropyl)aminocarbonyl}-3,3-dimethyl-1-(4-sulfobutyl)-3H-indolium, internal salt, sodium salt] | – |
